Key:
[1] = tested on: lipogenesis in swine adipose tissue; assay: percent inhibition of lipogenesis from radioactive glucose in pig (swine) adipose tissue slices; format: cell-based; details: 100 micrograms per milliliter, 37° C., 2 hours
Excerpt: (§1) The manner in which they cause this effect is not known with certainty; it is believed that they interfere with the synthesis of fatty acids in the tissues. Their effectiveness for this purpose has been ascertained by immersing samples of mammalian liver or adipose tissue in a liquid medium containing radioactive glucose and the test chemical for a period of time, then isolating the lipid from the treated tissue and determining the up-take of the radioactive carbon by means of scintillation counting techniques. These tests were conducted with both liver and adipose tissues, because in some animals the primary site of lipogenesis appears to be liver tissue, while in others it appears to be adipose tissue. The test animals were pigs, sheep, rabbits, cats and dogs.
Described in more detail, the tests were conducted according to the following general procedure:
Tissue slices (200 milligrams for liver; 150 milligrams for adipose tissue) were incubated, at 37° C. for 2 hours with shaking in 3 milliliters of Krebs-Ringer bicarbonate solution containing one-half the normal calcium ion concentration, 60 micromoles of glucose, 0.5 micro-Curie of glucose-U-^14 C, 300 microunits of insulin, and 5% dimethyl sulfoxide (DMSO). The test compounds were added as a solution or suspension in DMSO and were present at a concentration of 100 micrograms per milliliter of the incubation mixture.
The incubation was terminated by addition of 0.25 milliliter of 1 N sulfuric acid. The resulting mixture was extracted with a total of 25 milliliters of chloroform:methanol (2:1, v/v). The extracts were washed according to Folch et al. (J. Biol. Chem., 226, 497-509, (1957)), air dried, and counted in a liquid scintillation counter with 15 milliliters of counting fluid (two parts toluene containing 0.4% w/v New England Nuclear Omnifluor: 1 part Triton X-100). The tests were conducted in triplicate and were accompanied by control tests in which all ingredients,proportions and conditions were the same except that no test compound was included. From the data obtained, the percent inhibition of lipid synthesis by the test compound was calculated in each case.
Compound 1 was tested with respect to all of the indicated animal species. The other three compounds were tested only with respect to the pig.
From these and other tests, it has been established that in pigs there is little lipogenic activity in the liver tissue. From these and other tests, it also has been established that swine adipose tissue utilizes glucose for lipogenesis, and to be the major site of fatty acid synthesis. The data obtained from the tests using adipose tissue and glucose are set out in Table 1, as the percent inhibition of lipogenesis compared to the results obtained in the control tests wherein only the test compound was omitted.

[2] = tested on: glucose incorporation in adipose tissue; assay: inhibition of glucose incorporation into lipids in sheep adipose tissue slices; format: cell-based; details: 100 micrograms per milliliter, 37° C., 2 hours
Excerpt: as §1
(§2) Described in more detail, the tests were conducted according to the following general procedure: […]
(§3) The incubation was terminated by addition of 0.25 milliliter of 1 N sulfuric acid. […] The extracts were washed according to Folch et al. (J. Biol. Chem., 226, 497-509, (1957)), air dried, and counted in a liquid scintillation counter with 15 milliliters of counting fluid (two parts toluene containing 0.4% w/v New England Nuclear Omnifluor: 1 part Triton X-100). […] From the data obtained, the percent inhibition of lipid synthesis by the test compound was calculated in each case. […]

[3] = tested on: glucose incorporation into adipose tissue; assay: inhibition of glucose incorporation into rabbit adipose tissue slices; format: cell-based, rabbits; details: 100 micrograms per milliliter, 37° C., 2 hours
Excerpt: as §1, §2, §3

[4] = tested on: lipogenesis from glucose in adipose tissue; assay: inhibition of lipogenesis from glucose in dog adipose tissue slices; format: cell-based, dogs; details: 100 micrograms per milliliter, 37° C., 2 hours
Excerpt: as §1, §2, §3

[5] = tested on: glucose incorporation in the liver; assay: inhibition of glucose incorporation into lipids in sheep liver tissue slices; format: cell-based; details: 100 micrograms per milliliter, 37° C., 2 hours
Excerpt: as §1, §2, §3

[6] = tested on: swine adipose tissue lipid synthesis; assay: in vivo inhibition of swine adipose tissue lipid synthesis (oral dosing in feed, lipogenesis in biopsy slices); details: pigs, approximately 25 milligrams per kilogram per day in feed for seven days
Protocol: Compound 1 also was tested to determine the in vivo inhibition of swine adipose tissue lipid synthesis, as follows: pigs weighing about 20 kilograms were administered a fixed drug dose of approximately 25 milligrams of drug per kilogram of animal body weight per day for seven consecutive days. The drug was formulated to contain 10% w active ingredient and was prepared as coarse granules using 4% w plasdene as the granulating agent and lactose as the carrier. […] The daily drug or placebo dose was added to 1.2 kilograms of swine ration; about one-third of the total was fed at 0800, 1200, and 1600 hours. Biopsy samples were obtained from the dorsal subcutaneous adipose tissue (ca. 1 gram) in the neck region before drug administration, after 7 days of drug administration, and 6 days after withdrawal of drug. Adipose tissue slices were prepared from the biopsy sample, and in vitro lipogenesis was determined with radioactive glucose as substrate. The incubation was similar to that previously described except there was no DMSO or test compound in the flasks.

[7] = tested on: lipogenesis from glucose in the liver; assay: inhibition of lipogenesis from glucose in cat liver tissue slices; format: cell-based, cats; details: 100 micrograms per milliliter, 37° C., 2 hours
Excerpt: as §1, §2, §3

[8] = tested on: glucose utilization in adipose tissue; assay: inhibition of glucose utilization in cat adipose tissue slices; format: cell-based, cats; details: 100 micrograms per milliliter, 37° C., 2 hours
Excerpt: as §1, §2, §3

[9] = tested on: glucose incorporation into liver; assay: inhibition of glucose incorporation into rabbit liver tissue slices; format: cell-based, rabbits; details: 100 micrograms per milliliter, 37° C., 2 hours
Excerpt: as §1, §2, §3

SMILES: C=CCNC(=O)C1(C)COc2ccccc2O1 (centres unmarked) [Compound 2, 2,3-dihydro-N-(2-propenyl)-2-methyl-1,4-benzodioxin-2-carboxamide]
- Percent Inhibition of lipogenesis compared to control [1]: 41%

SMILES: C=CCNC(=O)C1COc2cc(Cl)ccc2O1 (centres unmarked) [Compound 3A, 6-chloro-2,3-dihydro-N-(2-propenyl)-1,4-benzodioxin-2-carboxamide]
- Percent Inhibition of lipogenesis compared to control [1]: 38%

SMILES: C=CCNC(=O)C1COc2ccc(F)cc2O1 (centres unmarked) [Compound 8, 7-fluoro-2,3-dihydro-N-(2-propenyl)-1,4-benzodioxin-2-carboxamides]
- Percent Inhibition of lipogenesis compared to control [1]: 72%

SMILES: C=CCNC(=O)C1COc2cc(C(C)(C)C)ccc2O1 (centres unmarked) [Compound 5, 6-(1,1-dimethylethyl)-2,3-dihydro-N-(2-propenyl)-1,4-benzodioxin-2-carboxamide]
- Percent Inhibition of lipogenesis compared to control [1]: 36%

SMILES: C=CCNC(=O)C1COc2ccccc2O1 (centres unmarked) [Compound 1, 2,3-dihydro-N-(2-propenyl)-1,4-benzodioxin-2-carboxamide]
- inhibition of glucose incorporation in adipose tissue [2]: 50%
- inhibition of glucose incorporation into adipose tissue [3]: 30%
- inhibition of lipogenesis from glucose in adipose tissue [4]: 54%
- inhibition of glucose incorporation in the liver [5]: 27%
- effect on lipogenic rate at day 13, compared to control animals ([6]; biopsy 6 days after withdrawal): had significantly reduced the lipogenic rate at day 13
- effect on lipogenesis at day 7, compared to control animals ([6]; biopsy after 7 days of administration): had not significantly affected lipogenesis at day 7
- inhibition of lipogenesis from glucose in the liver [7]: 35%
- inhibition of glucose utilization in adipose tissue [8]: did not inhibit glucose utilization in adipose tissue
- inhibition of glucose incorporation into liver [9]: 32%
- Percent Inhibition of lipogenesis compared to control [1]: 75%

SMILES: C=CCNC(=O)[C@@H]1Oc2ccccc2O[C@@H]1C (relative stereo) [Compound 4, 2,3-dihydro-3-methyl-N-(2-propenyl)-1,4-benzodioxin-2-carboxamide cis isomer]
- Percent Inhibition of lipogenesis compared to control [1]: 68%

SMILES: C=CCNC(=O)C1COc2ccc(C)cc2O1 (centres unmarked) [Compound 7]
- Percent Inhibition of lipogenesis compared to control [1]: 55%

SMILES: C=CCNC(=O)C1COc2cc(C)ccc2O1 (centres unmarked) [Compound 6, 2,3-dihydro-6-methyl-N-(2-propenyl)-1,4-benzodioxin-2-carboxamide]
- Percent Inhibition of lipogenesis compared to control [1]: 80%

Source: patent publication US4118507A, “Benzodioxincarboxamide lipogenesis inhibitors” (Shell Oil Company, priority 1977, dated 1978)
